Patent US4657891A, “Diuretic peptide, and production and use thereof” (Suntory Limited, priority 1984, dated 1987)
Bridge positions count the residues as written; N and C are the ends. Ends that are not written are not given here.

Assays:
Solubility in solvents = assay type: physicochemical
Excerpt: (6) Solubility in solvents: soluble in water, partially in methanol, and acetic acid; insoluble in ethyl acetate, butyl acetate, ethyl ether, hexane, petroleum ether, benzene, and chloroform.

[1] = Repeated administration: antibody production, anaphylaxis shock, toxicity; assay type: in vivo
Male rats [2] = test: Another test: relative amounts of urine, Na+, K+, Cl- for 30 minutes before and after administration (Table 3); assay type: in vivo, rat; settings: Furosemide 0.3 μmol
Experimental: Male rats weighing 300 to 400 grams were anesthetized by intraperitoneal administration of pentobarbital at a dosage of 60 mg/kg, and used for tests of the β-rANP according to the method described in Life Sciences, Vol. 28, pp 89-94.
To keep the respiratory tract open, a tracheal cannula (PE-240 Clay-Adams) was inserted into the trachea. An arterial cannula (PE-50) was inserted into a femoral artery for measurement of the blood pressure, and a venous cannula was inserted into a femoral vein for the administration of Ringer's solution. 1.2 ml of Ringer's solution was infused at a flow rate of 1.2 ml/hour.
A bladder cannula made of silastic tube with a inner diameter of 0.02 inches and an outer diameter of 0.037 inches was inserted into the bladder, and via the cannula, a urine sample was collected into a test tube. The collection of urine was carried out for 30 minutes before administration of the test compound, and every five minutes after the administration.
A predetermined amount of the test compound β-rANP was dissolved in 50 μl of sterilized physiological saline with 5 μg of bacitracin, and the solution was injected into the jugular vein.

Male rats [3] = test: Diuretic and natriuretic test in anesthetized rats, urine collected before and 5 minutes after jugular vein injection (Table 2); assay type: in vivo, rat; settings: furosemide 1.21 μmole (group IV)
Experimental: To keep the respiratory tract open, a tracheal cannula (PE-240 Clay-Adams) was inserted into the trachea. An arterial cannula (PE-50) was inserted into a femoral artery for measurement of the blood pressure, and a venous cannula was inserted into a femoral vein for the administration of Ringer's solution.
The collection of urine was carried out for 30 minutes before administration of the test compound, and every five minutes after the administration.
The control group (group I) was administered 50 μl of physiological saline containing only bacitracin.

Row | Molecule | Solubility in solvents (Solubility in solvents; ethyl acetate, butyl acetate, ethyl ether, hexane, petroleum ether, benzene, and chloroform) | Solubility in solvents (Solubility in solvents; methanol, and acetic acid) | Solubility in solvents (Solubility in solvents; water) | toxicity ([1]; in vivo) | anaphylaxis shock ([1]; repeated administration) | production of antibodies ([1]; repeated administration) | Urine volume, percentage after relating to before (Male rats [2]) [%] | Urine volume A (Male rats [3]; A: sample collected 5 minutes after administration) [µL/min] | Urine volume B (Male rats [3]; B: sample collected 30 minutes before administration) [µL/min]
1 | PSDRSALLKSKLRALLAGPRSLRRSSCFGGRIDRIGAQSGLGCNSFRY (disulfide 27-43) [β-rANP, β-rat atrial natriuretic polypeptide] | insoluble | partially | soluble | little toxicity | does not cause | does not stimulate |  |  | 
2 | NS(=O)(=O)c1cc(C(=O)O)c(NCc2ccco2)cc1Cl [Furosemide, furosemide] |  |  |  |  |  |  | 497 ± 165 | 167 ± 28 | 8.6 ± 1.9
